According to patent publication US9802942B2, “Substituted 4-methyl-pyrrolo[1,2-A]pyrimidine-8-carboxamide compounds and uses thereof for modulating glucocerebrosidase activity” (Northwestern University, priority 2015, dated 2017):
Read-outs that look alike come from different tables or passages of the source.

T1: glucocerebrosidase (GCase), recombinant wt. enzyme velaglucerase alfa (Homo sapiens, UniProt P04062)
T1 construct: purchased Shire Human Genetic Therapies, Inc. Vpriv
T1 sequence (P04062 40-536): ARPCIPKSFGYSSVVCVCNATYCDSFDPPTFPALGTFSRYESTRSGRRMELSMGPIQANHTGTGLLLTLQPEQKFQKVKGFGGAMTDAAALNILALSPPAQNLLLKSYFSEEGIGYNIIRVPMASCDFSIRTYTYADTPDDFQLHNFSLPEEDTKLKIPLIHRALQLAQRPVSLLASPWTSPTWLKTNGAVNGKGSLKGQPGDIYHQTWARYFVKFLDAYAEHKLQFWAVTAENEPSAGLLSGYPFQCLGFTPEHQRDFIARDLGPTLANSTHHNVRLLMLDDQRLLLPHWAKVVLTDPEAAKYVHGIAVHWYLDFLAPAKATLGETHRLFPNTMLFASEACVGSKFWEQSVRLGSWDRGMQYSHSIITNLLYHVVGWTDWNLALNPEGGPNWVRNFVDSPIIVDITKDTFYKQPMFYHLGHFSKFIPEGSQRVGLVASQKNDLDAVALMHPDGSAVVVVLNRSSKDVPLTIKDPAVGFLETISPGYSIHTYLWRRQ

T2: recombinant wild type GCase (Homo sapiens, UniProt P04062)
T2 construct: purchased Shire Human Genetic Therapies, Inc. Vpriv
T2 sequence (P04062 40-536): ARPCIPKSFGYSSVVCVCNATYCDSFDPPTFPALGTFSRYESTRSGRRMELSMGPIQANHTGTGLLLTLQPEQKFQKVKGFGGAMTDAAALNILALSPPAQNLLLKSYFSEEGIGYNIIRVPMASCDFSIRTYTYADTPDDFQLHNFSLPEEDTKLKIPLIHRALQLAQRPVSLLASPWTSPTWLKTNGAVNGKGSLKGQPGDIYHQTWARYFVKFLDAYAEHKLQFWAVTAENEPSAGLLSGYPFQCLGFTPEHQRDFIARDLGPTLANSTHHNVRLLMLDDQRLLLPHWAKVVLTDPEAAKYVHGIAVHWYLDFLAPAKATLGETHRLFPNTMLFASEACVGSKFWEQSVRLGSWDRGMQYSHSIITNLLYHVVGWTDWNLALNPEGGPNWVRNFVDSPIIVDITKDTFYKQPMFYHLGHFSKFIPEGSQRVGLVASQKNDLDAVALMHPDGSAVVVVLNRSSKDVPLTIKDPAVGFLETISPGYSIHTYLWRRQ


Experiments:
[1] = molecular target: T1, glucocerebrosidase (GCase), recombinant wt. enzyme velaglucerase alfa; experiment: Glucocerebrosidase activity assay with blue substrate (4MU-Glc); assay type: biochemical
Description: (§1) The compounds in DMSO solution 0.5 μL/well were transferred to a black 96-well plate (the final titration was 24 nM to 50 μM, 12 concentrations, 2 times dilution). 33.5 μL enzyme solution (7.5 nM final concentration) was transferred to the wells. After 5 min of incubation at room temperature, the enzyme reaction was initiated by the addition of 33 μL/well blue substrate or 66.5 μL/well red substrate. Final concentrations of the blue substrate (4MU-Glc) and red substrate (Res-Glc) were 1.5 mM and 30 μM, respectively. The red substrate reaction was measured in the Biotek Synergy H1 multi-mode plate reader with Ex=573 nm and Em=610 nm at 37° C. every 20 sec for 30 min. The blue substrate reaction was terminated by the addition of 33 μL/well stop solution (1 M NaOH and 1 M glycine mixture, pH 10) after 30 min of incubation at 37° C. The fluorescence was then measured in the plate reader at Ex=365 nm and Em=440 nm.
The recombinant wt. enzyme velaglucerase alfa (Vpriv®, Shire Human Genetic Therapies, Inc.) was obtained from residual solution after clinical infusions. The GCase activity assay buffer was composed of 50 mM citric acid, 176 mM K2HPO4, and 0.01% Tween-20 at pH 5.9. A solution of 1 M sodium hydroxide and 1 M glycine was used as the stop solution for the 4MU-β-glc substrate assay.
The compounds in DMSO solution 0.5 μL/well was transferred to a black 96-well plate (the final titration was 24 nM to 50 μM, 12 concentrations). 33.5 μL enzyme solution (7.5 nM final concentration) was transferred to the wells. After 5 min of incubation at room temperature, the enzyme reaction was initiated by the addition of 33 μL/well 4MU-Glc substrate or 66.5 μL/well red substrate. Final concentrations of the 4MU-Glc substrate and Res-Glc substrate were 1.5 mM and 30 μM, respectively. The red substrate reaction was measured in the Biotek Synergy H1 multi-mode plate reader with Ex=573 nm and Em=610 nm at 37° C. in every 20 seconds for 30 min. The 4MU-Glc substrate reaction was terminated by the addition of 33 μL/well stop solution (1 M NaOH and 1 M glycine mixture, pH 10) after 30 min of incubation at 37° C. The fluorescence was then measured in the plate reader with Ex=365 nm and Em=440 nm.

[2] = molecular target: T1, glucocerebrosidase (GCase), recombinant wt. enzyme velaglucerase alfa; experiment: Glucocerebrosidase activity assay with red substrate (Res-β-glc); assay type: biochemical; settings: red substrate enzyme activity assay
Description: as §1, with “nm. […]” for “nm.”
The compounds in DMSO solution 0.5 μL/well was transferred to a black 96-well plate (the final titration was 24 nM to 50 μM, 12 concentrations). […] The red substrate reaction was measured in the Biotek Synergy H1 multi-mode plate reader with Ex=573 nm and Em=610 nm at 37° C. in every 20 seconds for 30 min. […] The fluorescence was then measured in the plate reader with Ex=365 nm and Em=440 nm.

[3] = molecular target: T2, recombinant wild type GCase; experiment: Covalent binding assay: activity of GCase activated by probe 4; assay type: biochemical; settings: for enzyme activity comparing to the wt. GCase: covalent activation
Description: To the recombinant wild type enzyme (22 μM, 95 μL, 1 equiv) in 0.1 M phosphate buffer (pH 7.2) was added 2,5-dioxopyrrolidin-1-yl 3-(2-(2-(4-(4-(2,4-dimethylpyrrolo[1,2-a]pyrimidine-8-carboxamido)phenyl)-1H-1,2,3-triazol-1-yl)ethoxy)ethoxy)propanoate (4) in DMSO (0.89 mM, 5 μL, 2 equiv) in one portion, and was vortexed for 5 sec immediately. At indicated time points, the reaction solution (2 μL) was sampled and diluted (1:3125 dilution) into the assay buffer (50 mM citric acid, 176 mM K2HPO4, and 0.01% Tween-20 at pH 5.9). After 2 h the reaction solution was dialyzed three times with 0.1 M phosphate buffer (pH 7.2). The enzyme was adjusted to the same concentration and sampled for activity. The dilution solutions were assayed with three substrates, resorufin substrate, 4-MU substrate, and natural substrate using the method in Example 5 and Example 6 without adding compounds.
The probe 4 was subjected to the covalent binding assay against GCase. The reaction conditions, including the buffer pH value, the concentration of the protein and probe, and the reaction temperature were carefully adjusted to achieve the maximum activation. With the optimized reaction condition, the enzyme activity was activated in a time-dependent manner (FIG. 5). The enzyme could be activated by probe 4 with around 22 and 28 folds activity comparing to the wt. GCase in the 4MU-Glc substrate (FIG. 5A) and red substrate (FIG. 5B) enzyme activity assay respectively.

[4] = Enzyme stability assay in pH 4.7 buffer; assay type: physicochemical; settings: citrate/phosphate buffer pH 4.7, day 4
Source text: To test whether probe 4 changed the enzyme stability of GCase, we used two environments for GCase activity stability assay (Tekoah, Tzaban et al. 2013). The first one was citrate/phosphorylate buffer, which was at pH 4.7. In this condition, the wt. GCase only had about 15% activity left on day 4 (FIGS. 6A and 6B), which is similar to the previous research (Tekoah, Tzaban et al. 2013). An interesting finding was that even on day 10, activated GCase still had more than 20% activity left. […] One possible reason for the higher enzyme activity in low pH buffer was that activated GCase was stabilized by the covalent compound, and was more difficult to unfold.

[5] = system: U937 macrophage cells; experiment: U937 macrophage uptake assay; assay type: cell-based, human; settings: PMA-induced U937 cells, 4MU-β-glc substrate
Description: Human monocyte cell line U937 was optimally differentiated into macrophages by the addition of 75 ng/ml PMA (Brumshtein, Salinas et al. 2010) to the monocyte culture for 3 days (in 75 cm^2 flasks). Macrophages were enriched by adhesion to the culture plate and identified by morphology and receptor staining.
The assay was carried out according to the reported method (Tekoah, Tzaban et al. 2013) with slight modification. The enzyme was treated with compound 4 or DMSO at pH 7.2 for 60 min as described above, then dialyzed with PBS. U937 cells, after differentiation (˜1.6*10^6 cells), were incubated with 60 μg/ml of the activated enzymes and wt. enzyme in F12K medium for 10 min at 5% CO2, 37° C. incubator. The cells were then washed twice with ice cold PBS enriched with Mannan (1 mg/ml). To further ensure release of any proteins bound non-specifically to the membrane half of the cells were washed with ice cold glycine buffer: (0.8% NaCl, 0.038% KCl, 0.01% MgCl2, 0.01% CaCl2, 0.7% glycine [pH 3]) followed by two additional cold PBS washes. The other half of the wells were used as controls for measuring total enzymatic activity (bound and internalized enzyme). The cells were lysed by adding β-glucocerebrosidase activity buffer (60 mM phosphate-citrate buffer; 0.15% Triton X-100; 0.125% sodium taurocholate, pH 5.5), followed by pipetting and one freeze/thaw cycle. The obtained lysates were subjected to determination of enzymatic activity using the colorimetric method detailed above. The total enzymatic activity was normalized to total soluble proteins as measured by Bradford assay. The effective uptake was calculated as the percentage of activity within the cells out of the total enzymatic activity of the controls.

[6] = Table 2, values marked activator, read-out: Activity AC50 or IC50

Row | Molecule | activator (word in Activity cell) ([1]; Table 2) | AC50 [1, 6] [nM] | further results
1 | Cc1cc(C)n2ccc(C(=O)Nc3ccc(-c4cn(CCOCCOCCC(=O)ON5C(=O)CCC5=O)nn4)cc3)c2n1 [No. 2, 2,5-Dioxopyrrolidin-1-yl 3-(2-(2-(4-(4-(2,4-dimethylpyrrolo[1,2-a]pyrimidine-8-carboxamido)phenyl)-1H-1,2,3-triazol-1-yl)ethoxy)ethoxy)propanoate] | – | – | maximum activity / activation activity ([1]; 4MU-Glc substrate enzyme activity assay): 20 folds; activation activity, red substrate [2]: 10 folds; enzyme activity comparing to the wt. GCase ([3]; 4MU-Glc substrate): around 22 folds; enzyme activity comparing to the wt. GCase ([3]; red substrate): ~28 folds; enzyme activity followed by dialysis ([3]; three substrate assays, in words): not decreased significantly
2 | Cc1cc(C)n2ccc(C(=O)Nc3ccc(-c4cn(CCOCCOCCC(=O)NC5CCC5)nn4)cc3)c2n1 [compound 70] | – | – | AC50 ([1]; Table 1, titration 24 nM to 50 μM, substrate not given, read-out: Ac50): 3550 nM
3 | Cc1cc(C)n2ccc(C(=O)Nc3ccc(-c4cn(CCOCCOCCC(=O)NCCOCCOCCOCCNC(=O)CCOCCOCCn5cc(-c6ccc(NC(=O)c7ccn8c(C)cc(C)nc78)cc6)nn5)nn4)cc3)c2n1 [compound 71] | activator | 1260 | –
4 | Cc1cc(C)n2ccc(C(=O)NCc3cccnc3Oc3ccccc3)c2n1 [compound 72] | activator | 6130 | –
5 | Cc1cc(C)n2ccc(C(=O)Nc3ccc(I)cc3)c2n1 [compound 73] | activator | 316 | –
6 | COC(=O)CCCCCCCCC#Cc1ccc(NC(=O)c2ccn3c(C)cc(C)nc23)cc1 [compound 74] | activator | 710 | –
7 | Cc1cc(C)n2ccc(C(=O)Nc3ccc(C#CCCCCCCC#Cc4ccc(N)cc4)cc3)c2n1 [compound 75] | activator | 1260 | –
8 | Cc1cc(C)n2ccc(C(=O)Nc3ccc(C#CCCCCCCC#Cc4ccc(NC(=O)c5ccn6c(C)cc(C)nc56)cc4)cc3)c2n1 [compound 76] | activator | 28200 | –
9 | COC(=O)CCCCCCCCC#Cc1ccc(NC(=O)c2ccn3c(C)cc(-c4cccnc4)nc23)cc1 [compound 78] | activator | 710 | –
10 | Cc1cc(-c2cccnc2)nc2c(C(=O)Nc3ccc(C#CCCCCCCCCC(=O)O)cc3)ccn12 [compound 79] | activator | 3540 | –
11 | COC(=O)CCCC#Cc1cccc(NC(=O)c2ccn3c(C)cc(C)nc23)c1 [compound 80] | activator | – | –
12 | COC(=O)CCCCCc1cccc(NC(=O)c2ccn3c(C)cc(C)nc23)c1 [compound 81] | activator | 1780 | –
13 | Cc1cc(C)n2ccc(C(=O)Nc3ccc(C#CCCCCCCCCC(=O)ON4C(=O)CCC4=O)cc3)c2n1 [compound 82] | activator | 800 | –
14 | Cc1cc(-c2cccnc2)nc2c(C(=O)Nc3ccc(C#CCCCCCCCCC(=O)ON4C(=O)CCC4=O)cc3)ccn12 [compound 83] | activator | 560 | –
15 | wt. GCase: recombinant wt. enzyme velaglucerase alfa (Vpriv, Shire Human Genetic Therapies, Inc.) (protein, UniProt P04062 40-536, looked up, velaglucerase alfa) Lysosomal acid …: ARPCIPKSFGYSSVVCVCNATYCDSFDPPTFPALGTFSRYESTRSGRRMELSMGPIQANHTGTGLLLTLQPEQKFQKVKGFGGAMTDAAALNILALSPPAQNLLLKSYFSEEGIGYNIIRVPMASCDFSIRTYTYADTPDDFQLHNFSLPEEDTKLKIPLIHRALQLAQRPVSLLASPWTSPTWLKTNGAVNGKGSLKGQPGDIYHQTWARYFVKFLDAYAEHKLQFWAVTAENEPSAGLLSGYPFQCLGFTPEHQRDFIARDLGPTLANSTHHNVRLLMLDDQRLLLPHWAKVVLTDPEAAKYVHGIAVHWYLDFLAPAKATLGETHRLFPNTMLFASEACVGSKFWEQSVRLGSWDRGMQYSHSIITNLLYHVVGWTDWNLALNPEGGPNWVRNFVDSPIIVDITKDTFYKQPMFYHLGHFSKFIPEGSQRVGLVASQKNDLDAVALMHPDGSAVVVVLNRSSKDVPLTIKDPAVGFLETISPGYSIHTYLWRRQ | – | – | activity left [4]: about 15%; activity compared to endogenous GC [5]: about 3 folds
